In patent US20200405659A1, “COMPOSITION CONTAINING 2,3-BUTANEDIOL AS ACTIVE INGREDIENT” (GS CALTEX CORPORATION, priority 2018, published 2020):

Columns and labels:
[1] = DPPH free radical elimination activity (anti-oxidation ratio); conditions: for change of anti-oxidation ratio with the increase of the concentration: from 0.1 wt % to 1 wt %
Experimental: To evaluate the anti-oxidative effects of 2,3-butanediol, the elimination activity of free radicals was measured using a 2,2-diphenyl-1-picrylhydrazyl (DPPH) analysis method. Particularly, an anti-oxidation ratio was calculated by Equation 2 below.
Anti-oxidation ratio (%)=[[(absorbance of specimen treated group−absorbance of specimen untreated group)/(absorbance of negative control group−absorbance of specimen untreated group)]×100 [Equation 2]
i) specimen untreated group: group allowing reaction of ultrapure water and methanol
ii) specimen treated group: group allowing reaction of specimen by each concentration and DPPH
iii) negative control group: group allowing reaction of ultrapure water and DPPH
According to the concentration shown in Table 2 below, diols were diluted with a methanol solvent to prepare specimens, and each specimen was reacted with DPPH, and absorbance was measured, and the anti-oxidation ratios calculated are shown in Table 2 below.

[2] = tested on: collagenase (MMP-1); experiment: Collagenase (MMP-1) content in CCD-986SK cells (Human MMP-1 ELISA kit); format: cell-based; conditions: for Collagenase (MMP-1)(pg/mL) / MMP-1 content relative to untreated control (%): 48 hours; for MMP-1 content relative to untreated control (%): specimen-free = 100.00, decreased percent means collagenase restrained; for restraining effects of collagenase: compared with the Comparative Examples using 1,3-butanediol or 1,3-propanediol
Experimental: The anti-wrinkle effects of 2,3-butanediol were evaluated as the restraining effects of the decomposition of interstitial collagen, etc., by decreasing skin collagenase (for example, MMP-1).
To evaluate the anti-wrinkle effects of 2,3-butanediol, serum-free mediums composed of 99 mL of Dulbecco's modified eagle medium (Gibco) and 1 mL of Penicillin-streptomycin (Gibco), diluted with 2R,3S-butanediol, 2R,3R-butanediol, 1,3-butanediol and 1,3-propanediol in the concentrations shown in Table 3 below, were prepared.
In addition, cells CCD-986SK (ACTT CRL-6323™) were seeded in well plates by 1 mL with 5×10^4, and cultivated at 37° C. in a 5% CO2 cultivator for 24 hours. The cultivated cells were replaced with the mediums of the Examples and Comparative Examples and cultivated at 37° C. in a 5% CO2 cultivator for 48 hours.
A cell dissolution material was recovered, the protein content was measured using BSA protein assay reagent kit (Thermo scientific PIERCE, USA), the collagenase (MMP-1) content was measured suing Human MMP-1 ELISA kit (Sigma), and the results are shown in Table 4 below.
That is, the decreased percent calculated means that collagenase is effectively restrained.

SMILES	Anti-oxidation ratio (%) ([1]; 0.1 wt % in methanol)	Anti-oxidation ratio (%) ([1]; 0.5 wt % in methanol)	Anti-oxidation ratio (%) ([1]; 1.0 wt % in methanol)	change of anti-oxidation ratio with the increase of the concentration [1]	Collagenase (MMP-1)(pg/mL) ([2]; 0.50 wt % in serum-free medium)	MMP-1 content relative to untreated control (%) ([2]; 0.50 wt %)	Collagenase (MMP-1)(pg/mL) ([2]; 0.05 wt % in serum-free medium)	MMP-1 content relative to untreated control (%) ([2]; 0.05 wt %)	Collagenase (MMP-1)(pg/mL) ([2]; 0.10 wt % in serum-free medium)	MMP-1 content relative to untreated control (%) ([2]; 0.10 wt %)	Collagenase (MMP-1)(pg/mL) ([2]; 1.00 wt % in serum-free medium)	MMP-1 content relative to untreated control (%) ([2]; 1.00 wt %)	restraining effects of collagenase [2]	production of collagenase ([2]; concentration of 1 wt %)
CC(O)CCO (stereo not shown) [1,3-butanediol]	2.89	1.46	1.00	rather decreased	569.1	90.82	–	–	–	–	–	–	–	–
OCCCO [1,3-propanediol]	5.34	2.17	−1.23	rather decreased	602.9	94.23	–	–	–	–	–	–	–	–
C[C@@H](O)[C@@H](C)O [2R,3R-butanediol]	–	–	–	–	327.7	50.73	390.9	56.16	443.0	63.45	159.1	27.29	markedly increased	markedly reduced
C[C@H](O)[C@@H](C)O [2R,3S-butanediol]	2.23	3.95	–	increased	324.2	56.69	370.2	60.78	364.7	59.80	321.4	62.63	markedly increased	–
